We go through 28 compounds from patent US20090018134A1, “Compounds - 945” (AstraZeneca AB, priority 2007, published 2009).

Molecules are shown by their SMILES.

T1 sequence (P42345 1362-2549): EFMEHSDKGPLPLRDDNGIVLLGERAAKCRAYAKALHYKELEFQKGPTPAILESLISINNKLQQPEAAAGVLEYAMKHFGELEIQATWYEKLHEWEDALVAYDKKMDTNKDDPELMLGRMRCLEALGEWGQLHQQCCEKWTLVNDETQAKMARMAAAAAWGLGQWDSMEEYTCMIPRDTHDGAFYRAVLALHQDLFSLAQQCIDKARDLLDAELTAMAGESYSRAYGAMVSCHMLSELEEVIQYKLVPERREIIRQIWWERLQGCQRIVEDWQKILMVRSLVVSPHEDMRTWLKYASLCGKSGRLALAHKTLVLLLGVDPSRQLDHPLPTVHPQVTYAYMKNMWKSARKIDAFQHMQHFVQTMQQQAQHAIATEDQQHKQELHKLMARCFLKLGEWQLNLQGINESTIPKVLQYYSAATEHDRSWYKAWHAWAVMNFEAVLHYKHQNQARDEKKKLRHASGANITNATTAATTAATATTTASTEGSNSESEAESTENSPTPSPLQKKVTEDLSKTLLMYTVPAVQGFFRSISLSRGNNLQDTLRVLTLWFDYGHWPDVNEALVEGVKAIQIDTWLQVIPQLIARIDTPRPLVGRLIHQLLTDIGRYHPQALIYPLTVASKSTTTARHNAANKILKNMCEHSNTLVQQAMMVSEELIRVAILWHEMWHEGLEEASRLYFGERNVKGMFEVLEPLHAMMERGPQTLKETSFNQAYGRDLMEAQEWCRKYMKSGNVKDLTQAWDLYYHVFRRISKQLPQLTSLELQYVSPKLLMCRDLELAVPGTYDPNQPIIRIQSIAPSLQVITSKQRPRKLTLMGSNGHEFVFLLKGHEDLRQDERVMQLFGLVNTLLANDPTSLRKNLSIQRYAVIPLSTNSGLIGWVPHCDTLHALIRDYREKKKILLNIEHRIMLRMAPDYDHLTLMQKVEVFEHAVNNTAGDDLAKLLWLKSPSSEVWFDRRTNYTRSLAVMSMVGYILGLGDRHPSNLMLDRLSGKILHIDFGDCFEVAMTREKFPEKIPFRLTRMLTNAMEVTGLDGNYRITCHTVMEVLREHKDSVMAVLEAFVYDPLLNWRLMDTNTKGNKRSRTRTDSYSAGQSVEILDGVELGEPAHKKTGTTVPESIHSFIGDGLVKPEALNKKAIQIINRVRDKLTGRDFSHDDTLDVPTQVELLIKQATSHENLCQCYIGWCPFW

One test has as its target T1, mTOR (Homo sapiens, UniProt P42345).
T1 construct: FLAG; made in house
Put plainly: In Vitro mTOR Kinase Assay (Echo), Test (a)(ii). Format: biochemical. The settings on record: read-out: mTOR Kinase Assay (Echo). An outline of the steps:
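Inhibition of truncated mTOR (1362-2549, FLAG-tagged, purified from stably transfected HEK293 cells) is measured as reduced AlphaScreen signal from a phospho-T389-recognising antibody bound to the biotinylated peptide product. Kinase incubation lasts 2 hours at room temperature. Potency is given as IC50.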
In the case of `CC(C)CNC(=O)Nc1ccc(-c2nc(N3CCOC[C@@H]3C)cc(C3(S(C)(=O)=O)CCC3)n2)cc1` [Example 5i, 1-[4-[4-[(3S)-3-methylmorpholin-4-yl]-6-(1-methylsulfonylcyclobutyl)pyrimidin-2-yl]phenyl]-3-(2-methylpropyl)urea], the IC50 was found to be 9.88 nM.

Turning to `CCS(=O)(=O)C1(c2cc(N3CCOC[C@@H]3C)nc(-c3ccc(NC(=O)NCCN(C)C)cc3)n2)CC1` [Example 11g, 3-(2-dimethylaminomethyl)-1-[4-[4-(1-ethylsulfonylcyclopropyl)-6-[(3S)-3-methylmorpholin-4-yl]pyrimidin-2-yl]phenyl]urea], the IC50 is 313 nM.

Consider `CCCNC(=O)Nc1ccc(-c2nc(N3CCOC[C@@H]3C)cc(C3(S(C)(=O)=O)CC3)n2)cc1` [Example 2k, 1-[4-[4-[(3S)-3-methylmorpholin-4-yl]-6-(1-methylsulfonylcyclopropyl)pyrimidin-2-yl]phenyl]-3-propyl-urea], for which the IC50 was 4.06 nM.

Take `CNC(=O)Nc1ccc(-c2nc(N3CCOCC3)cc(C3(S(C)(=O)=O)CCC3)n2)cc1` [Example 12q, 3-methyl-1-[4-[4-(1-methylsulfonylcyclobutyl)-6-morpholin-4-ylpyrimidin-2-yl]phenyl]urea]: the IC50 came out at 1.62 nM.

Still in this test, the particulars now being: table of enzyme assay Test (a)(ii); read-out: Test (a)(ii) IC50.
On to `C[C@H]1COCCN1c1cc(C2(S(=O)(=O)c3ccc(Cl)cc3)CC2)nc(-c2ccc(NC(=O)NC(C)(C)CO)cc2)n1` [Example 27k, 1-[4-[4-[1-(4-chlorophenyl)sulfonylcyclopropyl]-6-[(3S)-3-methylmorpholin-4-yl]pyrimidin-2-yl]phenyl]-3-(1-hydroxy-2-methylpropan-2-yl)urea], for which the IC50 stood at 4.62 nM.

`Cc1cc(F)ccc1S(=O)(=O)C1(c2cc(N3CCOC[C@@H]3C)nc(-c3ccc(NC(=O)NCCO)cc3)n2)CC1` [Example 82b, 1-[4-[4-[1-(4-fluoro-2-methylphenyl)sulfonylcyclopropyl]-6-[(3S)-3-methylmorpholin-4-yl]pyrimidin-2-yl]phenyl]-3-(2-hydroxyethyl)urea]: the IC50 came out at 7.57 nM.

On to `O=C(Nc1ccc(-c2nc(N3CCOCC3)cc(C3(S(=O)(=O)c4ccncc4)CC3)n2)cc1)NC1CC1` [Example 36av, 3-cyclopropyl-1-[4-[4-morpholin-4-yl-6-(1-pyridin-4-ylsulfonylcyclopropyl)pyrimidin-2-yl]phenyl]urea], for which the IC50 was 9.95 nM.

Take `C[C@H]1COCCN1c1cc(C2(S(=O)(=O)c3ccc(F)cc3)CC2)nc(-c2cnc(NC(=O)NC3CC3)nc2)n1` [Example 14e, 3-cyclopropyl-1-[5-[4-[1-(4-fluorophenyl)sulfonylcyclopro-pyl]-6-[(3S)-3-methylmorpholin-4-yl]pyrimidin-2-yl]pyrimidin-2-yl]urea]: the IC50 worked out at 110 nM.

Consider `CCNC(=O)Nc1ccc(-c2nc(N3CCOC[C@@H]3C)cc(C3(S(=O)(=O)c4ccc(NCC)c(Cl)c4)CC3)n2)cc1` [Example 95k, 1-[4-[4-[1-(3-chloro-4-ethylamino-phenyl)sulfonylcyclopro-pyl]-6-[(3S)-3-methylmorpho-lin-4-yl]pyrimidin-2-yl]phenyl]-3-ethylurea], for which the IC50 came to 27.2 nM.

In the case of `CN1CCN(C(=O)C2(c3cc(N4CCOCC4)nc(-c4ccc(NC(=O)NCCO)cc4)n3)CC2)CC1` [Example 34d, 3-(2-hydroxyethyl)-1-[4-[4-[1-(4-methylpiperazine-1-carbonyl)cyclopropyl]-6-morpholin-4-ylpyrimidin-2-yl]phenyl]urea], the IC50 was determined as 86.3 nM.

Regarding `CCS(=O)(=O)C1(c2cc(N3CCOC[C@@H]3C)nc(-c3ccc(NC(=S)NCCCO)cc3)n2)CC1` [Example 88c, 1-[4-[4-(1-ethylsulfonylcyclopropyl)-6-[(3S)-3-methylmorpholin-4-yl]pyrimidin-2-yl]phenyl]-3-(3-hydroxypropyl)thiourea], the IC50 came out at 47 nM.

With `C[C@H]1COCCN1c1cc(C2(S(=O)(=O)c3cc(F)cc(F)c3)CC2)nc(-c2ccc(NC(=O)NC(C)(C)CO)cc2)n1` [Example 19k, 1-[4-[4-[1-(3,5-difluorophenyl)sulfonylcyclopro-pyl]-6-[(3S)-3-methylmorpholin-4-yl]pyrimidin-2-yl]phenyl]-3-(1-hydroxy-2-methylpropan-2-yl)urea], the IC50 worked out at 4.15 nM.

For the compound `CNC(=O)Nc1ccc(-c2nc(N3CCOC[C@@H]3C)cc(C3(S(=O)(=O)c4ccccn4)CC3)n2)cc1` [Example 28e, 3-methyl-1-[4-[4-[(3S)-3-methylmorpholin-4-yl]-6-(1-pyridin-2-ylsulfonylcyclopropyl)pyrimidin-2-yl]phenyl]urea], the IC50 was found to be 0.434 nM.

Take `CCCNC(=O)Nc1ccc(-c2nc(N3CCOC[C@@H]3C)cc(C3(S(C)(=O)=O)CC3)n2)cc1` [Example 2k, 1-[4-[4-[(3S)-3-methylmorpholin-4-yl]-6-(1-methylsulfonylcyclopropyl)pyrimidin-2-yl]phenyl]-3-propyl-urea]: the IC50 came to 3.81 nM.

On to `C[C@H]1COCCN1c1cc(C2(S(=O)(=O)CCCO)CC2)nc(-c2ccc(NC(=O)NC3CCC3)cc2)n1` [Example 31b, 3-cyclobutyl-1-[4-[4-[1-(3-hydroxypropylsulfonyl)cyclopropyl]-6-[(3S)-3-methylmorpholin-4-yl]pyrimidin-2-yl]phenyl]urea], for which the IC50 stood at 4.97 nM.

Regarding `Cc1ccccc1S(=O)(=O)C1(c2cc(N3CCOC[C@@H]3C)nc(-c3ccc(NC(=O)NCCF)cc3)n2)CC1` [Example 54c, 3-(2-fluoroethyl)-1-[4-[4-[(3S)-3-methylmorpholin-4-yl]-6-[1-(2-methylphenyl)sulfonylcyclo-propyl]pyrimidin-2-yl]phenyl]urea], the IC50 is 4.53 nM.

In the case of `C[C@H]1COCCN1c1cc(C2(S(=O)(=O)c3ccc(C#N)cc3)CC2)nc(-c2ccc(NC(=O)NCC(F)F)cc2)n1` [Example 77d, 1-[4-[4-[1-(4-cyanophenyl)sulfonylcyclopropyl]-6-[(3S)-3-methylmorpholin-4-yl]pyrimidin-2-yl]phenyl]-3-(2,2-difluoroethyl)urea], the IC50 was 10.1 nM.

With `Cc1nc(S(=O)(=O)C2(c3cc(N4CCOC[C@@H]4C)nc(-c4ccc(NC(=O)NCC(F)F)cc4)n3)CC2)sc1C` [Example 80, 3-(2,2-Difluoroethyl)-1-[4-[4-[1-[(4,5-dimethyl-1,3-thiazol-2-yl)sulfonyl]cyclopropyl]-6-[(3S)-3-methylmorpholin-4-yl]pyrimidin-2-yl]phenyl]urea], the IC50 turned out to be 19.7 nM.

Take `C[C@H]1COCCN1c1cc(C2(S(=O)(=O)c3cc(F)ccc3F)CC2)nc(-c2ccc(NC(=O)NC3CC3)cc2)n1` [Example 60a, 3-cyclopropyl-1-[4-[4-[1-(2,5-difluorophenyl)sulfonylcyclopropyl]-6-[(3S)-3-methylmorpholin-4-yl]pyrimidin-2-yl]phenyl]urea]: the IC50 was determined as 19.1 nM.

For the compound `C[C@H]1COCCN1c1cc(C2(S(=O)(=O)c3ccncc3)CC2)nc(-c2ccc(NC(=O)NC3(CO)CC3)cc2)n1` [Example 36cx, 3-[1-(hydroxymethyl)cyclopropyl]-1-[4-[4-[(3S)-3-methylmorpholin-4-yl]-6-(1-pyridin-4-ylsulfonylcyclopropyl)pyrimidin-2-yl]phenyl]urea], the IC50 worked out at 284 nM.

`Cn1cc(NC(=O)Nc2ccc(-c3nc(N4CCOCC4)cc(C4(S(=O)(=O)c5ccccn5)CC4)n3)cc2)cn1` [Example 56d, 3-(1-methylpyrazol-4-yl)-1-[4-[4-morpholin-4-yl-6-(1-pyridin-2-ylsulfonylcyclopropyl)pyrimidin-2-yl]phenyl]urea]: the IC50 came out at 4.3 nM.

With `O=C(NCCO)Nc1ccc(-c2nc(N3CCOCC3)cc(C3(S(=O)(=O)c4ccccc4)CC3)n2)cc1` [Example 36de, 1-[4-[4-[1-(benzenesulfonyl)cyclopropyl]-6-morpholin-4-ylpyrimidin-2-yl]phenyl]-3-(2-hydroxyethyl)urea], the IC50 worked out at 3.89 nM.

In the case of `CC[C@H]1COCCN1c1cc(C2(S(=O)(=O)c3ccccc3)CC2)nc(-c2ccc(NC(=O)NC)cc2)n1` [Example 74, 1-[4-[4-[1-(Benzenesulfonyl)cyclopropyl]-6-[(3S)-3-ethylmorpholin-4-yl]pyrimidin-2-yl]phenyl]-3-methylurea], the IC50 is 2.37 nM.

For the compound `CNC(=O)Nc1ccc(-c2nc(N3CCOC[C@@H]3C)cc(C3(S(=O)(=O)C4CC4)CCOCC3)n2)cc1` [Example 23f, 1-[4-[4-(4-cyclopropylsulfonyloxan-4-yl)-6-[(3S)-3-methylmorpholin-4-yl]pyrimidin-2-yl]phenyl]-3-methylurea], the IC50 came out at 19.9 nM.

Regarding `Cc1nc(C)c(S(=O)(=O)C2(c3cc(N4CCOC[C@@H]4C)nc(-c4ccc(NC(=O)NCCF)cc4)n3)CC2)s1` [Example 78e, 1-[4-[4-[1-[(2,4-dimethyl-1,3-thiazol-5-yl)sulfonyl]cyclopropyl]-6-[(3S)-3-methylmorpholin-4-yl]pyrimidin-2-yl]phenyl]-3-(2-fluoroethyl)urea], the IC50 is 23.9 nM.

Regarding `O=C(NCCO)Nc1ccc(-c2nc(N3CCOCC3)cc(C3(S(=O)(=O)c4ccccn4)CC3)n2)cc1` [Example 56c, 3-(2-hydroxyethyl)-1-[4-[4-morpholin-4-yl-6-(1-pyridin-2-ylsulfonylcyclopropyl)pyrimidin-2-yl]phenyl]urea], the IC50 stood at 6.23 nM.

As for `C[C@H]1COCCN1c1cc(C2(S(=O)(=O)c3cc(F)ccc3F)CC2)nc(-c2ccc(NC(=O)NCCO)cc2)n1` [Example 60b, 1-[4-[4-[1-(2,5-difluorophenyl)sulfonylcyclopropyl]-6-[(3S)-3-methylmorpholin-4-yl]pyrimidin-2-yl]phenyl]-3-(2-hydroxyethyl)urea], the IC50 came out at 8.62 nM.

As to `Cc1csc(S(=O)(=O)C2(c3cc(N4CCOC[C@@H]4C)nc(-c4ccc(NC(=O)NC5CC5)cc4)n3)CC2)n1` [Example 25, 3-Cyclopropyl-1-[4-[4-[(3S)-3-methylmorpholin-4-yl]-6-[1-[(4-methyl-1,3-thiazol-2-yl)sulfonyl]cyclopropyl]pyrimidin-2-yl]phenyl]urea], the IC50 came out at 1.55 nM.

As to `CNC(=S)Nc1ccc(-c2nc(N3CCOC[C@@H]3C)cc(C3(S(=O)(=O)CCCO)CCC3)n2)cc1` [Example 99a, 1-[4-[4-[1-(3-hydroxypropylsulfonyl)cyclobutyl]-6-[(3S)-3-methylmorpholin-4-yl]pyrimidin-2-yl]phenyl]-3-methylthiourea], the IC50 was 43.8 nM.
